This series has as its system mGluR2/3. The experiment in a line: microPET imaging in rhesus monkey, baseline and compound A pretreatment. Type of series: in vivo, rhesus monkey (Macaca mulatta). The following applies: for BPnd: baseline, SRTM, pons reference. The text has this:
Dynamic 120-min μPET scans with [^18F]-1 were acquired with a Focus 220 μPET scanner on a rhesus monkey (8 y-old female Macaca mulatta, 5.8 kg), that was sedated with ketamine (Ketalar®) and xylazine (Rompun®) via intramuscular (i.m.) injection. During scanning the monkey received repeatedly an additional dose of ketamine/xylazine via i.v. injection. O2 saturation in blood, breathing frequency and heartbeat frequency were monitored during the entire experiment. The head of the animal was placed central in the field of view of the μPET scanner. Scans were acquired in list mode and Fourier rebinned in 27 time frames (4×15 s, 4×60 s, 5×180 s, 8×300 s, 6×600 s). Data were reconstructed using a 3D maximum a posteriori (3D-MAP) iterative reconstruction. TACs of the whole brain were generated using VOIs with PMOD software. Radioactivity concentration in the brain is expressed as SUV as a function of time after tracer injection. In addition, non-displaceable binding potential (BPnd) was determined, using kinetic modeling based on the simplified reference tissue model (SRTM) with the pons as reference region (0-60 min). Scans were started immediately after i.v. injection of 185 MBq of [^18F]-1 via the vena saphena of the right leg. For the pre-treatment study, the cold authentic reference compound A was dissolved in a vehicle containing 20% (2-hydroxypropyl)-β-cyclodextrin and 2 equivalents HCl, filtered through a 0.22-μm membrane filter (Millex-GV, Millipore) prior to injection. Pre-treatment was done by i.v. injection of 2.5 mg/kg of cold authentic reference compound A, 30 min prior to injection of 185 MBq of [^18F]-1. μPET images were compared to a baseline scan, acquired in the non-treated monkey. Blood samples were collected during both baseline and pre-treatment scans at 10, 30 and 60 min p.i. via a catheter in the vena saphena of the left leg and plasma was analysed for radio metabolites according to the same procedure as for rats.

As for `C[C@H]1CN(c2ccc(C(F)(F)F)c(C[18F])c2)C(=O)c2c(NC(=O)c3cccnc3N)cnn21` [compound 1], the BPnd entry (frontal and prefrontal cortices) is “high”. In addition, the bone uptake result (microPET scans, rhesus monkey) is listed as “No bone uptake”. Further, where the note is “thalamus”, the BPnd entry was “low”. Moreover, where the note is “whole brain, baseline scan”, the “brain uptake SUV” value was roughly 3 SUV and the “time to peak uptake” value worked out at 3.5 min.

Values taken from patent publication US11045562B2, “Radiolabelled mGluR2/3 PET ligands” (Janssen Pharmaceutica NV, priority 2015, dated 2021).
